Data: patent US20240002391A1, “4-ALKOXYPYRROLO[2,1-F][1,2,4]TRIAZINES AND PREPARATION AND USES THEREOF” (BioSplice Therapeutics, Inc., priority 2022, published 2024)

Legend:
[1] = biological target: recombinant DYRK1A kinase (Homo sapiens (Human), UniProt Q13627); assay: DYRK1A kinase assay (Ser/Thr 18 peptide Z-lyte FRET); type: biochemical; conditions: DYRK1A kinase activity, Z-lyte Ser/Thr 18 peptide, 15 μM ATP; method text calls the value IC50; read-out: EC50 (the source's name)
Summary of the method: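 Compounds were tested as 11-point, threefold dilution series starting at 10 μM against recombinant enzyme in a 1 h room-temperature reaction with 15 μM ATP and 4 μM peptide substrate. Phosphorylation is read by protease-coupled FRET, and IC50 values come from curve fitting.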

[2] = tested on: Tau phosphorylation at Thr212 (pThr212) in HEK293T cells transfected with DYRK1A and MAPT; assay: Tau phosphorylation phosphoTau (Thr212) AlphaLISA assay in HEK293T cells transfected with DYRK1A and MAPT; type: cell-based; conditions: HEK-293T, HEK293T cells transiently transfected with human DYRK1A and MAPT, compound treatment 18-24 hours, read-out: pTau (Thr212) EC50
Procedure: Representative compounds were screened using the assay procedure for tau phosphorylation activity described below.
HEK293T cells (ATCC, CRL3216) cultured in DMEM (Thermo Fisher Scientific, 10566024) supplemented with 10% FBS (Coming, 35-011—CV) and Penicillin/Streptomycin (Thermo Fisher Scientific, 15140163) were seeded in a 75 cm^2 flask at 8.1×10^6 cells/flask. The HEK293T cells were then transiently transfected with 5 μg DYRK1A (NM_001396) human untagged clone (OriGene, SC314641) and 2.5 μg MAPT (441 a.a. Tau gene) (NM_005910) human untagged clone (OriGene, TP313312) using Lipofectamine 3000 (Thermo Fisher Scientific, L30000015) and incubated for 20-30 hours in a humidified incubator at 37° C. and 5% CO^2. Post-incubation, HEK293T cells transfected with the DYRK1A and MAPT expression vectors were harvested and seeded in BioCoat poly-D lysine coated 96-well plates (Coming, 354461) at 3×10^4 cells/well.
The above synthesized compounds were screened using the cell assay procedure to assess decreased Tau phosphorylation at Thr212 (pThr212) described below.
Each compound was dissolved in DMSO (Sigma-Aldrich, D8418-100 mL) as a 10 mM stock. 10 mM stocks were serially diluted 1:3, 10-point dose-response curve and added to the cells with a final concentration ranging from 20 μM to 1.1 nM. Cells were treated with compounds in duplicate and incubated for 18-24 hours in a humidified incubator at 37° C. and 5% CO^2.
Following the overnight compound treatment, cells were lysed with 1X Alpha Surefire Ultra Lysis Buffer (Perkin Elmer, ALSU-LB-100ML) complemented with 1X Halt Phosphatase Inhibitor Cocktail (Thermo Fisher Scientific, 78427) and 1X Halt Protease Inhibitor Cocktail (Thermo Fisher Scientific, 78438). Lysates were spun down at 12,000 g for 10 min to remove any cellular debris and 5 μL of lysates were dispensed into a 384-well Opti-Plate (Perkin Elmer, 6007290) for the measurement of Tau phosphorylation in the phosphoTau (Thr212) AlphaLISA assay. Donor antibody, biotinylated HT7Tau (Thermo Fisher Scientific, MN1000B), and acceptor antibody, pThr212Tau (Thermo Fisher Scientific, 44740G) were both added to the cell lysates at a final concentration of 3 nM and incubated for 1 hour at room temperature. Following incubation of the lysates with the donor and acceptor antibodies, anti-rabbit IgG(Fc specific) AlphaLISA acceptor beads (Perkin Elmer, AL104C) were added at a 10 ug/mL final concentration and incubated for 1 hour at room temperature protected from light. Lastly, AlphaScreen streptavidin donor beads (PerkinElmer, 6760002) were added at 40 ug/mL final concentration and incubated for 1 hour at room temperature protected from light. Plates were read at […] on the EnVision Multilabel Plate Reader (Perkin Elmer). The phospho-Tau (Thr212) AlphaLISA signal was used to plot, draw the curve fitting, and determine each compound's EC50 in Prism (GraphPad).

SMILES	IC50 [1]	EC50 [2]
COc1nc(N[C@@H]2CCC(F)(F)C2)nn2ccc(-c3cnc4nccn4c3)c12 [Compound 943, (R)—N-(3,3-Difluorocyclopentyl)-5-(imidazo[1,2-a]pyrimidin-6-yl)-4-methoxypyrrolo[2,1-f][1,2,4]triazin-2-amine]	3.6 nM	57.5 nM
COc1nc(N[C@H]2CC[C@](C)(O)CC2)nn2ccc(-c3ccc4ncnn4c3)c12 [Compound 194, trans-4-((5-([1,2,4]Triazolo[1,5-a]pyridin-6-yl)-4-methoxypyrrolo[2,1-f][1,2,4]triazin-2-yl)amino)-1-methylcyclohexan-1-ol]	2.2 nM	107 nM
C[C@]1(O)CC[C@H](Nc2nc(OC3COC3)c3c(-c4ccc5nccnc5c4)ccn3n2)CC1 [Compound 392, trans-1-Methyl-4-((4-(oxetan-3-yloxy)-5-(quinoxalin-6-yl)pyrrolo[2,1-f][1,2,4]triazin-2-yl)amino)cyclohexan-1-ol]	1.4 nM	25.2 nM
COc1nc(N[C@H]2CC[C@](C)(O)CC2)nn2ccc(-c3ccc4nnn(C)c4c3)c12 [Compound 3, trans-4-((4-Methoxy-5-(1-methyl-1H-benzo[d][1,2,3]triazol-6-yl)pyrrolo[2,1-f][1,2,4]triazin-2-yl)amino)-1-methylcyclohexan-1-ol]	1.5 nM	197 nM
COc1nc(NC2CCC3(CC2)COC3)nn2ccc(-c3cnc4nccn4c3)c12 [Compound 276, 5-(Imidazo[1,2-a]pyrimidin-6-yl)-4-methoxy-N-(2-oxaspiro[3.5]nonan-7-yl)pyrrolo[2,1-f][1,2,4]triazin-2-amine]	0.6 nM	10.1 nM
COc1nc(N[C@H]2CC[C@](C)(O)CC2)nn2ccc(-c3ccn4nccc4c3)c12 [Compound 20, trans-4-((4-Methoxy-5-(pyrazolo[1,5-a]pyridin-5-yl)pyrrolo[2,1-f][1,2,4]triazin-2-yl)amino)-1-methylcyclohexan-1-ol]	3.4 nM	107 nM
COc1nc(N[C@H]2C[C@](C)(O)C2)nn2ccc(-c3ccc4nnn(C)c4c3)c12 [Compound 200, trans-3-((4-Methoxy-5-(1-methyl-1H-benzo[d][1,2,3]triazol-6-yl)pyrrolo[2,1-f][1,2,4]triazin-2-yl)amino)-1-methylcyclobutan-1-ol]	3.8 nM	130 nM
CNC(=O)[C@]1(C)C[C@@H](Nc2nc(OC)c3c(-c4ccc5nnn(C)c5c4)ccn3n2)C1 [Compound 210, trans-3-((4-Methoxy-5-(1-methyl-1H-benzo[d][1,2,3]triazol-6-yl)pyrrolo[2,1-f][1,2,4]triazin-2-yl)amino)-N,1-dimethylcyclobutane-1-carboxamide]	1.5 nM	19.7 nM
COc1nc(N[C@H]2CC[C@](C)(O)CC2)nn2ccc(-c3cc(F)c4nccn4c3)c12 [Compound 431, (1r,4r)-4-((5-(8-Fluoroimidazo[1,2-a]pyridin-6-yl)-4-methoxypyrrolo[2,1-f][1,2,4]triazin-2-yl)amino)-1-methylcyclohexan-1-ol]	2.3 nM	129 nM

Continued by falling IC50 [1], values first:

IC50 [1]	SMILES	EC50 [2]
4.2 nM	COc1nc(N[C@H]2CCN(C3COC3)C[C@H]2F)nn2ccc(-c3ccc4ncccc4c3)c12 [Compound 318, N-((3R,4S)-3-Fluoro-1-(oxetan-3-yl)piperidin-4-yl)-4-methoxy-5-(quinolin-6-yl)pyrrolo[2,1-f][1,2,4]triazin-2-amine]	75.4 nM
2.2 nM	COc1nc(N[C@@H]2CN(C(C)=O)C[C@@H]2F)nn2ccc(-c3ccc4nccnc4c3)c12 [Compound 352, 1-((3S,4R)-3-Fluoro-4-((4-methoxy-5-(quinoxalin-6-yl)pyrrolo[2,1-f][1,2,4]triazin-2-yl)amino)pyrrolidin-1-yl)ethan-1-one]	39.4 nM
1.3 nM	COc1nc(NC2CC3(COC3)C2)nn2ccc(-c3cnc4nccn4c3)c12 [Compound 272, 5-(Imidazo[1,2-a]pyrimidin-6-yl)-4-methoxy-N-(2-oxaspiro[3.3]heptan-6-yl)pyrrolo[2,1-f][1,2,4]triazin-2-amine]	13.4 nM
1.2 nM	COc1nc(N[C@H]2CC[C@H](NC(C)=O)CC2)nn2ccc(-c3ccc4nccn4c3)c12 [Compound 54, N-(trans-4-((5-(Imidazo[1,2-a]pyridin-6-yl)-4-methoxypyrrolo[2,1-f][1,2,4]triazin-2-yl)amino)cyclohexyl)acetamide]	25.7 nM
0.9 nM	COc1nc(N[C@H]2C[C@](C)(NC(C)=O)C2)nn2ccc(-c3ccc4ncnn4c3)c12 [Compound 192, N-(trans-3-((5-([1,2,4]Triazolo[1,5-a]pyridin-6-yl)-4-methoxypyrrolo[2,1-f][1,2,4]triazin-2-yl)amino)-1-methylcyclobutyl)acetamide]	18.1 nM
